Laboratory results reported in patent publication US4886810A, “Quinoline derivatives, pharmaceutical composition and method of use” (Dainippon Pharmaceutical Co., Ltd., priority 1986, dated 1989).
In brackets after ≈: the same amount, converted by molar mass. Where two headings read alike, the source gives them in different places.

Legend:
S. pyogenes A 65 = test: microbe, parasite or virus in culture; type: cell-based
M. lacunata P-7102 = test: microbe, parasite or virus in culture; type: cell-based
S. aureus No. 80 = test: microbe, parasite or virus in culture; type: cell-based
male mice (ddY) = test: Acute oral toxicity in mice (Table 3); settings: mouse, in vivo
P. aeruginosa 12 = test: microbe, parasite or virus in culture; type: cell-based
Flavobacterium sp P-7201 = test: microbe, parasite or virus in culture; type: cell-based; settings: P7201, 20 h, read-out: minimum inhibitory concentrations (MIC)
M. bovis P-7101 = test: microbe, parasite or virus in culture; type: cell-based; settings: Mycobacterium tuberculosis variant bovis, P7101, 20 h; read-out: minimum inhibitory concentrations (MIC)
S. aureus 209P JC-1 = test: microbe, parasite or virus in culture; type: cell-based; settings: Staphylococcus aureus, 20 h, read-out: minimum inhibitory concentrations (MIC)
S. aureus No. 50774 = test: microbe, parasite or virus in culture; type: cell-based
[1] = system: Gram-positive and Gram-negative bacteria; test: In vitro antibacterial activity, overall; type: cell-based
Description: The numbers in the table show minimum inhibitory concentrations (MIC) (μg/ml), calculated for free base. The minimum inhibitory concentration was determined by the twofold agar-dilution method, which was recommended by Japan Society of Chemotherapy (Chemotherapy, 29(1), (1981)), using Muller-Hinton agar. One loopful of an overnight culture of test organisms in Mueller-Hinton broth was inoculated onto 10-ml drug-containing agar layers in petri dishes. Bacterial inocula contained approximately 10^6 colonyl-forming units. Bacterial growth was observed after 20-hour incubation at 37° C. The MIC was defined as the lowest drug concentration which prevented visible bacterial growth.

in vivo = settings: mouse, po
S. pyogenes Cook = test: microbe, parasite or virus in culture; type: cell-based
B. abortus kusayanagi = test: microbe, parasite or virus in culture; type: cell-based; settings: Brucella abortus, 20 h; read-out: minimum inhibitory concentrations (MIC)
E. coli P-51213 = test: microbe, parasite or virus in culture; type: cell-based
[2] = system: Pseudomonas aeruginosa 12; test: animal or person; type: in vivo; settings: for ED50: Pseudomonas aeruginosa, 12, in Mus musculus, po, 168 h, 7 days, read-out: median effective dose (ED50)
[3] = system: Streptococcus pyogenes A65; test: animal or person; type: in vivo; settings: A65, in Mus musculus, po, 168 h, 7 days, read-out: median effective dose (ED50)
[4] = system: Gram-positive and Gram-negative bacteria; test: In vivo efficacy against systemic infections, overall
Description: Compounds were each dissolved in deionized water. Each of the solutions was orally administered to mice infected with each of the test organisms under the conditions shown hereinbelow, and the median effective dose (ED 50) was calculated by […]. The numerals in the table show ED50 (mg/kg) value, calculated for free base.
Mice: Male mice (ddY-S) weighing about 20 g Infection:
Twice, immediately and 6 hours after infection.
For 14 days in case of Staphylococcus aureus 50774.
For 7 days in case of other organisms.

[5] = system: Staphylococcus aureus 50774; test: animal or person; type: in vivo; settings: Staphylococcus aureus, 50774, in Mus musculus, po, 336 h, read-out: median effective dose (ED50)
[6] = Streptococcus pyogenes, A65, 20 h; read-out: minimum inhibitory concentrations (MIC)
[7] = 20 h; read-out: minimum inhibitory concentrations (MIC)
[8] = Staphylococcus aureus, NO.80, 20 h; read-out: minimum inhibitory concentrations (MIC)
[9] = Pseudomonas aeruginosa, 12, 20 h; read-out: minimum inhibitory concentrations (MIC)
[10] = Staphylococcus aureus, NO.50774, 20 h; read-out: minimum inhibitory concentrations (MIC)
[11] = Streptococcus pyogenes, 20 h; read-out: minimum inhibitory concentrations (MIC)
[12] = Escherichia coli, P51213, 20 h; read-out: minimum inhibitory concentrations (MIC)

Compound | MIC (S. pyogenes A 65; [6]) | MIC (M. lacunata P-7102; [7]) | MIC (S. aureus No. 80; [8]) | toxicity (in words) (male mice (ddY)) | MIC (P. aeruginosa 12; [9]) | MIC (Flavobacterium sp P-7201) | MIC (M. bovis P-7101) | MIC (S. aureus 209P JC-1) | MIC (S. aureus No. 50774; [10]) | antibacterial activity against Gram-positive and Gram-negative bacteria (in words) [1] | LD50 at 168 h (in vivo) | MIC (S. pyogenes Cook; [11]) | MIC (B. abortus kusayanagi) | MIC (E. coli P-51213; [12]) | other results
C[C@H]1CN(c2c(F)c(F)c3c(=O)c(C(=O)O)cn(C4CC4)c3c2F)C[C@H]1N (relative stereo) [Compound 2, 1-cyclopropyl-5,6,8-trifluoro-7-(cis3-amino-4-methyl-1-pyrrolidinyl)-1,4-dihydro-4-oxoquinoline-3-carboxylic acid] | 0.39 µg/mL (≈ 1.02 µM) | 0.78 µg/mL (≈ 2.05 µM) | 0.05 µg/mL (≈ 0.131 µM) | low oral toxicity | 0.39 µg/mL (≈ 1.02 µM) | 0.2 µg/mL (≈ 0.524 µM) | 0.39 µg/mL (≈ 1.02 µM) | 0.05 µg/mL (≈ 0.131 µM) | 0.05 µg/mL (≈ 0.131 µM) | very high antibacterial activities | > 2000 mg/kg | 0.2 µg/mL (≈ 0.524 µM) | 0.78 µg/mL (≈ 2.05 µM) | 0.05 µg/mL (≈ 0.131 µM) | 
C[C@@H]1CN(c2c(F)c(N)c3c(=O)c(C(=O)O)cn(C4CC4)c3c2F)C[C@H]1N (relative stereo) [Compound 5, 5-amino-7-(trans-3-amino-4-methyl-1-pyrrolidinyl)-1-cyclopropyl-6,8-difluoro-1,4-dihydro-4-oxoquinoline-3-carboxylic acid] | 0.1 µg/mL (≈ 0.264 µM) | 0.39 µg/mL (≈ 1.03 µM) | 0.0125 µg/mL (≈ 0.033 µM) | low oral toxicity | 0.1 µg/mL (≈ 0.264 µM) | 0.05 µg/mL (≈ 0.132 µM) | 0.1 µg/mL (≈ 0.264 µM) | 0.025 µg/mL (≈ 0.0661 µM) | 0.0125 µg/mL (≈ 0.033 µM) | very high antibacterial activities | > 2000 mg/kg | 0.1 µg/mL (≈ 0.264 µM) | 0.2 µg/mL (≈ 0.529 µM) | 0.025 µg/mL (≈ 0.0661 µM) | 
C[C@H]1CN(c2c(F)c(N)c3c(=O)c(C(=O)O)cn(C4CC4)c3c2F)C[C@H]1CN.Cl (relative stereo) [Compound 6, 5-amino-7-(cis-3-aminomethyl-4-methyl-1-pyrrolidinyl)-1-cyclopropyl-6,8-difluoro-1,4-dihydro-4-oxoquinoline-3-carboxylic acid hydrochloride] | 0.0125 µg/mL | 0.2 µg/mL | 0.0031 µg/mL |  | 0.1 µg/mL | 0.025 µg/mL | 0.2 µg/mL | < 0.0031 µg/mL | 0.0031 µg/mL |  |  | 0.0063 µg/mL | 0.39 µg/mL | 0.0125 µg/mL | 
CC1(N)CCN(c2c(F)c(N)c3c(=O)c(C(=O)O)cn(C4CC4)c3c2F)C1 (centres unmarked) [Compound 3, 5-amino-7-(3-amino-3-methyl-1-pyrrolidinyl)-1-cyclopropyl-6,8-difluoro-1,4-dihydro-4-oxoquinoline-3-carboxylic acid] | 0.1 µg/mL (≈ 0.264 µM) | 0.78 µg/mL (≈ 2.06 µM) | 0.0063 µg/mL (≈ 0.0166 µM) | low oral toxicity | 0.2 µg/mL (≈ 0.529 µM) | 0.1 µg/mL (≈ 0.264 µM) | 0.2 µg/mL (≈ 0.529 µM) | 0.025 µg/mL (≈ 0.0661 µM) | 0.025 µg/mL (≈ 0.0661 µM) | very high antibacterial activities | > 2000 mg/kg | 0.1 µg/mL (≈ 0.264 µM) | 0.39 µg/mL (≈ 1.03 µM) | 0.05 µg/mL (≈ 0.132 µM) | ED50 [2]: 1.68 mg/kg; efficacy against systemic infection by P. aeruginosa 12 compared with Compound A (in words) ([2]; in vivo): better efficacy; ED50 [3]: 9.14 mg/kg; therapeutic effect on infections by Gram-positive and Gram-negative bacteria (in words) ([4]; in vivo): potent therapeutic effects; therapeutic effect compared with Compounds A and B (in words) ([4]; versus Compounds A and B, systemic infections, mice): better therapeutic effects
CCC1(N)CCN(c2c(F)c(N)c3c(=O)c(C(=O)O)cn(C4CC4)c3c2F)C1 (centres unmarked) [Compound 4, 5-amino-7-(3-amino-3-ethyl-1-pyrrolidinyl)-1-cyclopropyl-6,8-difluoro-1,4-dihydro-4-oxoquinoline-3-carboxylic acid] | 0.2 µg/mL (≈ 0.51 µM) | 0.78 µg/mL (≈ 1.99 µM) | 0.0063 µg/mL (≈ 0.0161 µM) | low oral toxicity | 0.2 µg/mL (≈ 0.51 µM) | 0.05 µg/mL (≈ 0.127 µM) | 0.2 µg/mL (≈ 0.51 µM) | 0.025 µg/mL (≈ 0.0637 µM) | 0.025 µg/mL (≈ 0.0637 µM) | very high antibacterial activities | > 2000 mg/kg | 0.1 µg/mL (≈ 0.255 µM) | 0.39 µg/mL (≈ 0.994 µM) | 0.05 µg/mL (≈ 0.127 µM) | 
CCn1cc(C(=O)O)c(=O)c2c(N)c(F)c(N3CCNCC3)c(F)c21 [Compound A, 5-amino-1-ethyl-6,8-difluoro-7-(1piperazinyl)-1,4-dihydro-4-oxoquinoline-3-carboxylic acid, reference compound] | 12.5 µg/mL (≈ 35.5 µM) | 6.25 µg/mL (≈ 17.7 µM) | 0.2 µg/mL (≈ 0.568 µM) |  | 0.78 µg/mL (≈ 2.21 µM) | 0.78 µg/mL (≈ 2.21 µM) | 3.13 µg/mL (≈ 8.88 µM) | 0.2 µg/mL (≈ 0.568 µM) | 0.2 µg/mL (≈ 0.568 µM) |  |  | 6.25 µg/mL (≈ 17.7 µM) | 3.13 µg/mL (≈ 8.88 µM) | 0.39 µg/mL (≈ 1.11 µM) | ED50 [2]: 15 mg/kg; ED50 [3]: > 25 mg/kg
Cl.O=C(O)c1cn(C2CC2)c2cc(N3CCNCC3)c(F)cc2c1=O [Compound B, 1-cyclopropyl-6-fluoro-7-(1-piperazinyl)-1,4-dihydro-4-oxoquinoline-3carboxylic acid hydrochloride, reference compound] |  |  |  |  |  | 0.39 µg/mL |  | 0.1 µg/mL |  |  |  |  |  |  | MIC (S. pyogenes A 65; Streptococcus pyogenes, A65, 20 h, read-out: minimum inhibitory concentrations (MIC)): 0.2 µg/mL; ED50 [5]: 11.7 mg/kg; MIC (M. lacunata P-7102; 20 h, read-out: minimum inhibitory concentrations (MIC)): 6.25 µg/mL; MIC (S. aureus No. 80; Staphylococcus aureus, NO.80, 20 h, read-out: minimum inhibitory concentrations (MIC)): 0.39 µg/mL; MIC (P. aeruginosa 12; Pseudomonas aeruginosa, 12, 20 h, read-out: minimum inhibitory concentrations (MIC)): 0.1 µg/mL; MIC (S. aureus No. 50774; Staphylococcus aureus, NO.50774, 20 h, read-out: minimum inhibitory concentrations (MIC)): 0.1 µg/mL; MIC (S. pyogenes Cook; Streptococcus pyogenes, 20 h, read-out: minimum inhibitory concentrations (MIC)): 0.2 µg/mL; MIC (E. coli P-51213; Escherichia coli, P51213, 20 h, read-out: minimum inhibitory concentrations (MIC)): 0.05 µg/mL
